According to ChEMBL document CHEMBL4270617, “Design, synthesis, antimicrobial, antiquorum-sensing and antitumor evaluation of new series of pyrazolopyridine derivatives” (Eur J Med Chem, 2018):

How the values were obtained:
[1] = system: Ehrlich; experiment: Antitumor activity against mouse EAC cells allografted in Swiss mouse assessed as mean survival time at 0.5 mg/mouse administered for 9 days (reference value: 18 day); format: functional
[2] = system: Ehrlich; experiment: Antitumor activity against mouse EAC cells allografted in Swiss mouse assessed as tumor volume at 0.5 mg/mouse administered for 9 days (reference value: 10.15 mL); format: functional
[3] = system: Ehrlich; experiment: Antitumor activity against mouse EAC cells allografted in Swiss mouse assessed as viable tumor cell count at 0.5 mg/mouse administered for 9 days (reference value: 77.41 10^6/ml); format: functional
[4] = Displacement of methyl green from DNA (unknown origin) incubated in dark for 24 hrs
[5] = system: Mus musculus; experiment: Toxicity in Swiss albino mouse implanted with mouse EAC cells assessed as WBC count at 0.5 mg/mouse administered for 9 days (reference value: 20.53 10^3/mm3); format: organism-based; details: in vivo, 216 h
[6] = system: HeLa; experiment: Antitumor activity against human HeLa cells assessed as inhibition of cell proliferation after 48 hrs by MTT assay; format: functional, cell-based
[7] = system: HepG2; experiment: Antitumor activity against human HepG2 cells assessed as inhibition of cell proliferation after 48 hrs by MTT assay; format: functional, cell-based; details: HepG2, 48 h
[8] = system: Mus musculus; experiment: Toxicity in Swiss albino mouse implanted with mouse EAC cells assessed as RBC count at 0.5 mg/mouse administered for 9 days (reference value: 3.59 10^6/mm3); format: organism-based; details: in vivo, 216 h
[9] = system: Ehrlich; experiment: Antitumor activity against mouse EAC cells allografted in Swiss mouse assessed as increase in life span at 0.5 mg/mouse administered for 9 days relative to control; format: functional
[10] = system: Mus musculus; experiment: Toxicity in Swiss albino mouse implanted with mouse EAC cells assessed as hemoglobin level at 0.5 mg/mouse administered for 9 days (reference value: 7.05 g/dl); format: organism-based; details: in vivo, 216 h
[11] = system: Staphylococcus aureus; experiment: Antibacterial activity against Staphylococcus aureus ATCC 29213 after 24 hrs by two-fold serial dilution method; format: functional; details: ATCC 29213, 24 h
[12] = system: Bacillus cereus; experiment: Antibacterial activity against Bacillus cereus UW 85 after 24 hrs by two-fold serial dilution method; format: functional; details: UW 85, 24 h
[13] = system: Pseudomonas aeruginosa; experiment: Antibacterial activity against Pseudomonas aeruginosa PAO1 after 24 hrs by two-fold serial dilution method; format: functional; details: PAO1, 24 h
[14] = system: Chromobacterium violaceum; experiment: Inhibition of quorum sensing system in Chromobacterium violaceum ATCC 12472 assessed as diameter of violacein pigment inhibition at 5 mg/ml after 48 hrs
[15] = system: Aspergillus flavus; experiment: Antifungal activity against Aspergillus flavus 3375 after 48 hrs by two-fold serial dilution method; format: functional; details: Aspergillus flavus, 3375, 48 h
[16] = system: MCF7; experiment: Antitumor activity against human MCF7 cells assessed as inhibition of cell proliferation after 48 hrs by MTT assay; format: functional, cell-based; details: MCF7, 48 h
[17] = system: Aspergillus fumigatus; experiment: Antifungal activity against Aspergillus fumigatus 293 after 48 hrs by two-fold serial dilution method; format: functional; details: Aspergillus fumigatus, 293, 48 h
[18] = system: Candida albicans; experiment: Antifungal activity against Candida albicans after 48 hrs by two-fold serial dilution method; format: functional
[19] = system: Escherichia coli; experiment: Antibacterial activity against Escherichia coli ATCC 12435 after 24 hrs by two-fold serial dilution method; format: functional; details: ATCC 12435, 24 h
[20] = system: WISH; experiment: Cytotoxicity against human WISH cells after 48 hrs by MTT assay; format: cell-based
[21] = system: WI-38; experiment: Cytotoxicity against human W138 cells after 48 hrs by MTT assay; format: cell-based; details: WI-38, 48 h

Row | SMILES | IC50 [4] | IC50 [7] | MIC [11] | IC50 ([6]; read-out: IC50) | MIC [12] | MIC [13] | diameter of the inhibition zone (DIZ) [14] | MIC [15] | IC50 [16] | MIC [17] | MIC [18] | MIC [19] | other results
1 | COc1cccc2c1C(=O)c1c(O)c3c(c(O)c1C2=O)C[C@@](O)(C(=O)CO)C[C@@H]3O[C@H]1C[C@H](N)[C@H](O)[C@H](C)O1 [DOXORUBICIN] | 31.3 µM | 4.3 µM |  |  |  |  |  |  |  |  |  |  | MSD [1]: 62 days; Activity [2]: 1 mL; Activity [3]: 16.36 ×10⁶ /ml; Activity [5]: 8.96 ×10³ /mm3; IC50 [6]: 5.17 µM; Activity [8]: 5.32 ×10⁶ /mm3; Activity [9]: 244.4%; Activity [10]: 12.75 g/dL
2 | CCOC(=O)C1=C(N/N=C(/C#N)C(=O)OCC)Nc2[nH]nc(C)c2C1c1ccc(N(C)C)cc1 (configuration not stated) |  | 46.4 µM | 2150 µM | 39.2 µM | 1070 µM | 1070 µM | < 2 mm | 2150 µM | 35.6 µM | 2150 µM | 537 µM | 1070 µM | 
3 | CCOC(=O)C1=C(N/C=N/c2ccccn2)Nc2[nH]nc(C)c2C1c1ccc(N(C)C)cc1 (configuration not stated) | 28 µM | 26.2 µM | 70.1 µM | 29.2 µM | 70.1 µM | 281 µM | < 2 mm | 281 µM | 37.3 µM | 281 µM | 561 µM | 281 µM | 
4 | CCOC(=O)C1=C(N/N=C(/Br)c2ccccc2)Nc2[nH]nc(C)c2C1c1ccc(N(C)C)cc1 (configuration not stated) |  | 72 µM | 955 µM | 75.7 µM | 955 µM | 478 µM | 11 mm | 1910 µM | 78.4 µM | 1910 µM | 1910 µM | 955 µM | 
5 | CC1(C)S[C@@H]2[C@H](NC(=O)[C@H](N)c3ccccc3)C(=O)N2[C@H]1C(=O)O [AMPICILLIN] |  |  | 716 µM |  | 1430 µM |  |  |  |  |  |  | 28.6 µM | 
6 | CCOC(=O)C1=C(N/N=C(/C(=O)Br)c2ccc(Cl)cc2)Nc2[nH]nc(C)c2C1c1ccc(N(C)C)cc1 (configuration not stated) | 80.7 µM | 50.2 µM | 427 µM | 49.3 µM | 427 µM | 1710 µM | < 2 mm | 3410 µM | 46.3 µM | 3410 µM | 3410 µM | 1710 µM | 
7 | CCOC(=O)C1=C(N/C=N/c2ccc([N+](=O)[O-])cc2)Nc2[nH]nc(C)c2C1c1ccc(N(C)C)cc1 (configuration not stated) | 59.6 µM | 50.9 µM | 255 µM | 57.8 µM | 1050 µM | 128 µM | 7 mm | 4090 µM | 58.6 µM | 4090 µM | 2040 µM | 128 µM | 
8 | CCOC(=O)C1=C(NN=C(C#N)C#N)Nc2[nH]nc(C)c2C1c1ccc(N(C)C)cc1 (configuration not stated) | 44 µM | 13.7 µM | 4780 µM | 15.2 µM | 2390 µM | 1190 µM | < 2 mm | 2390 µM | 12.1 µM | 2390 µM | 2390 µM | 2390 µM | IC50 [20]: 45.2 µM; MSD [1]: 39 days; Activity [2]: 2.25 mL; Activity [3]: 30.93 ×10⁶ /ml; Activity [5]: 10.69 ×10³ /mm3; Activity [8]: 5.14 ×10⁶ /mm3; IC50 [21]: 42.7 µM; Activity [9]: 116.7%; Activity [10]: 12.65 g/dL
9 | CCOC(=O)C1=C(N/C=N/c2ccc(C)cc2)Nc2[nH]nc(C)c2C1c1ccc(N(C)C)cc1 (configuration not stated) | 76.4 µM | 44.4 µM | 136 µM | 43.2 µM | 136 µM | 2180 µM | < 2 mm | 2180 µM | 50.5 µM | 2180 µM | > 200 µg/mL | 2180 µM | 
10 | COc1ccc(C2C(C#N)=C(/N=C/OC(C)=O)Nc3[nH]nc(-c4ccccc4)c32)cc1 (configuration not stated) | 39.4 to 82.8 µM |  |  |  |  |  |  |  |  |  |  |  | 
11 | Oc1cc(O)c2c(c1)O[C@H](c1ccc(O)c(O)c1)[C@@H](O)C2 |  |  |  |  |  |  | 2 mm |  |  |  |  |  | 
12 | CCOC(=O)C1=C(N/C=N/c2nnc(S(N)(=O)=O)s2)Nc2[nH]nc(C)c2C1c1ccc(N(C)C)cc1 (configuration not stated) | 79.1 µM | 38.1 µM | 118 µM | 26.3 µM | 118 µM | 940 µM | 9 mm | 940 µM | 34.5 µM | 940 µM | 940 µM | 940 µM | 
13 | CCOC(=O)C1=C(N/N=C(/Cl)C#N)Nc2[nH]nc(C)c2C1c1ccc(N(C)C)cc1 (configuration not stated) |  | 23.6 µM | > 200 µg/mL | 26.2 µM | 2340 µM | 1170 µM | < 2 mm | 2340 µM | 23.2 µM | 4670 µM | 4670 µM | 2340 µM | 
14 | COc1ccc(C2C(C#N)=C(NC(=O)c3ccccc3)Nc3[nH]nc(-c4ccccc4)c32)cc1 (configuration not stated) | 39.4 to 82.8 µM |  |  |  |  |  |  |  |  |  |  |  | 
15 | CCOC(=O)C1=C(N/N=C(\C#N)C(N)=O)Nc2[nH]nc(C)c2C1c1ccc(N(C)C)cc1 (configuration not stated) |  | 48.4 µM | 4580 µM | 47.3 µM | 2290 µM | 1150 µM | < 2 mm | 4580 µM | 50.1 µM | 4580 µM | 4580 µM | 1150 µM | 
16 | COc1ccc(C2C(C#N)=C(NC(=O)/C=C/C(=O)O)Nc3[nH]nc(-c4ccccc4)c32)cc1 (configuration not stated) | 39.4 to 82.8 µM |  |  |  |  |  |  |  |  |  |  |  | 
17 | CCOC(=O)C1=C(N/N=C(/Cl)c2ccc([N+](=O)[O-])cc2)Nc2[nH]nc(C)c2C1c1ccc(N(C)C)cc1 (configuration not stated) |  | 55.5 µM | 954 µM | 46.2 µM | 1910 µM | 954 µM | < 2 mm | 1910 µM | 52.7 µM | 1910 µM | 3820 µM | 1910 µM | 
18 | CCOC(=O)C(=NNC1=C(C(=O)OCC)C(c2ccc(N(C)C)cc2)c2c(C)n[nH]c2N1)C(=O)OCC (configuration not stated) |  | 80.8 µM | 976 µM | 83.8 µM | 976 µM | 976 µM | < 2 mm | 1950 µM | 89.8 µM | 1950 µM | 3900 µM | 976 µM | 
19 | CCOC(=O)C1=C(N/N=C(/C(=O)Br)c2ccc(Br)cc2)Nc2[nH]nc(C)c2C1c1ccc(N(C)C)cc1 (configuration not stated) | 43.7 µM | 65 µM | 99.1 µM | 68.5 µM | 99.1 µM | 397 µM | < 2 mm | 1590 µM | 61.3 µM | 793 µM | 397 µM | 397 µM | 
20 | OC(Cn1cncn1)(Cn1cncn1)c1ccc(F)cc1F [FLUCONAZOLE] |  |  |  |  | > 200 µg/mL | > 200 µg/mL |  | > 200 µg/mL |  | > 200 µg/mL | 6530 µM | > 200 µg/mL | 
21 | CCOC(=O)C1=C(N/N=C(/C(C)=O)C(=O)OCC)Nc2[nH]nc(C)c2C1c1ccc(N(C)C)cc1 (configuration not stated) | 68.2 µM | > 100 µM | 2070 µM | > 100 µM | 518 µM | 518 µM | < 2 mm | 2070 µM | > 100 µM | 2070 µM | 4140 µM | 518 µM | 
22 | CCOC(=O)C1=C(N/N=C(\c2ccc([N+](=O)[O-])cc2)N2CCN(c3ccc(F)cc3)CC2)Nc2[nH]nc(C)c2C1c1ccc(N(C)C)cc1 (configuration not stated) | 51.8 µM | 90.2 µM | 749 µM | 87 µM | 374 µM | 187 µM | < 2 mm | 3000 µM | > 100 µM | 3000 µM | 749 µM | 187 µM | 
23 | CCOC(=O)C1=C(N/N=C(\C(C)=O)C(=O)c2ccccc2)Nc2[nH]nc(C)c2C1c1ccc(N(C)C)cc1 (configuration not stated) |  | 42.3 µM | 1940 µM | 47.4 µM | 1940 µM | 972 µM | < 2 mm | 3890 µM | 47.3 µM | 3890 µM | 1940 µM | 1940 µM | 
